Data set [1] has as its system Culex quinquefasciatus mosquito. Description: USDA Petri Dish Method, 3 min exposure to treated glazed tile (twenty 4-6 day old females). It is filed as in vivo. The settings on record: for % KD and Mortality 3′ / % KD and Mortality 9′ / % KD and Mortality 15′ / % KD and Mortality 30′ / % KD and Mortality 1 h / % KD and Mortality 24 h: Table 73, in acetone, glazed tiles, 3′ exposure time; for % KD and Mortality 3′: 20 insects (three replicates); for % KD and Mortality 9′ / % KD and Mortality 15′ / % KD and Mortality 30′ / % KD and Mortality 1 h / % KD and Mortality 24 h: 20 insects; for Average % Mortality after 1 hr / Average % Mortality after 3 hr / Average % Mortality after 5 hr / Average % Mortality after 24 hr: Table 77, carbaryl study, Culex quinquefasciatus; for Average % Mortality after 1 hr: glazed tile, 3 min exposure, adjuvant = Compound A 1% + Compound B 0.5%. As for the experimental part:
(§1) MATERIALS AND METHODS: Solutions of resmethrin at 1 and 0.5% AI were prepared with and without adjuvant in acetone. […] USDA Petri Dish Method was used as initial screening protocol. Twenty, 4-6 day old female Culex quinquefasciatus mosquitoes were exposed to each treatment for 3 minutes and then moved to a clean untreated white paper index card. Treatments were replicated a minimum of three times. Mosquito knockdown was evaluated at 3 minute intervals for the first 15 minutes and then at 5 minute intervals for the remainder of an hour. A small cotton ball soaked in sucrose solution was added on the screen top of the petri-dish as a drinking source after the 2 hour evaluation. Mortality was evaluated at 24 hours after exposure.
Treatments were allowed to dry overnight. USDA Petri Dish Method was used as initial screening protocol. Twenty, 4-6 day old female Culex mosquitoes were exposed to each treatment for 3 minutes and then moved to a clean untreated white paper index card. Treatments were replicated a minimum of three times. Mosquito knockdown was evaluated at various intervals through 3 hours after exposure. A small cotton ball soaked in sucrose solution was added on the screen top of the petri-dish as a drinking source. Mortality was evaluated at 24 hours after exposure.
Treatments were allowed to dry overnight. USDA Petri Dish Method was used as initial screening protocol. Twenty, 4-6 day old female Culex quinquefasciatus mosquitoes were exposed to each treatment for 3 minutes and then moved to a clean untreated white paper index card. Treatments were replicated a minimum of three times. Mosquito knockdown was evaluated at various intervals through 2 hours after exposure. A small cotton ball soaked in sucrose solution was then added on the screen top of the petri-dish as a drinking source. Mortality was evaluated at 24 hours after exposure.
Treatments were allowed to dry overnight. USDA Petri Dish Method was used as initial screening protocol. Twenty, 4-6 day old female Culex quinquefasciatus mosquitoes were exposed to each treatment for 3 minutes and then moved to a clean untreated white paper index card. Treatments were replicated a minimum of three times. Mosquito knockdown was evaluated at various hourly intervals. A small cotton ball soaked in sucrose solution was added on the screen top of the petri-dish as a drinking source after 2 hours. Mortality was evaluated at 24 hours after exposure.

Data set [2] concerns susceptible/normal German cockroach (Monheim strain), Blattella germanica. Description: Knockdown/mortality of male cockroaches under continuous exposure on treated glazed tile. The data set is classed as in vivo. The settings on record: Table 53, fipronil/adjuvant in acetone, glazed tile, Monheim strain. As for the experimental part: Treatments were allowed to dry overnight. […] Treatments were replicated a minimum of three times. […]
Treatments were allowed to dry overnight. […] Treatments were replicated a minimum of three times. Cockroach knockdown/mortality was evaluated at 5 minute intervals for the first 60 minutes after exposure and then at 2, 18 and 24 hours.

The subject of data set [3] is Argentine ant, Linepithema humile. Description: Knockdown/mortality of ant workers under continuous exposure on treated glazed tile. The settings on record: Table 49, fipronil/adjuvant in acetone, glazed tile. The method in brief: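 0.5% AI imidacloprid in acetone, alone or with 0.1, 1.0 or 5.0% additive (benzenepropanoic acid, oleic acid, methyl oleate, methyl linoleate, methyl palmitate or BHA), 1 ml dried overnight on glazed tile (~161 cm^2). Ten workers confined under continuous exposure, water from 3 h; knockdown/mortality scored at intervals and 24 h; ≥3 replicates.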

For the next data set, the system named is Aedes aegypti mosquito. Description: USDA Petri Dish Method, 3 min exposure to treated glazed tile. As to conditions: glazed tile, 3 min exposure. It is filed as in vivo. As for the experimental part: Treatments were allowed to dry overnight. USDA Petri Dish Method was used as initial screening protocol. Twenty, 4-6 day old female Aedes aegypti mosquitoes were exposed to each treatment for 3 minutes and then moved to a clean untreated white paper index card. Treatments were replicated a minimum of three times. Mosquito knockdown was evaluated at various intervals through 7 hours after exposure. A small cotton ball soaked in sucrose solution was added on the screen top of the petri-dish as a drinking source. Mortality was evaluated at 24 hours after exposure.
as §1, with “Aedes aegypti” for “Culex quinquefasciatus”, “source.” for “source after the 2 hour evaluation.”
Treatments were allowed to dry overnight. USDA Petri Dish Method was used as initial screening protocol. Twenty, 4-6 day old female Aedes aegypti mosquitoes were exposed to each treatment for 3 minutes and then moved to a clean untreated white paper index card. Treatments were replicated a minimum of three times. Mosquito knockdown was evaluated at various intervals through 6 hours after exposure. A small cotton ball soaked in sucrose solution was added on the screen top of the petri-dish as a drinking source. Mortality was evaluated at 24 hours after exposure.
Treatments were allowed to dry overnight. USDA Petri Dish Method was used as initial screening protocol. Twenty, 4-6 day old female Aedes aegypti mosquitoes were exposed to each treatment for 3 minutes and then moved to a clean untreated white paper index card. Treatments were replicated a minimum of three times. Mosquito knockdown was evaluated at 5 minute intervals for the first hour and then at 2, 4 and 6 hours. A small cotton ball soaked in sucrose solution was added on the screen top of the petri-dish as a drinking source. Mortality was evaluated at 24 hours after exposure.
Treatments were allowed to dry overnight. USDA Petri Dish Method was used as initial screening protocol. Twenty, 4-6 day old female Aedes aegypti mosquitoes were exposed to each treatment for 3 minutes and then moved to a clean untreated white paper index card. Treatments were replicated a minimum of three times. Mosquito knockdown was evaluated at 3-5 minute intervals for the first hour. A small cotton ball soaked in sucrose solution was then added on the screen top of the petri-dish as a drinking source. Mortality was evaluated at 24 hours after exposure.
Treatments were allowed to dry overnight. USDA Petri Dish Method was used as initial screening protocol. Twenty, 4-6 day old female Aedes aegypti mosquitoes were exposed to each treatment for 3 minutes and then moved to a clean untreated white paper index card. Treatments were replicated a minimum of three times. Mosquito knockdown was evaluated at various intervals through 2 hours after exposure. A small cotton ball soaked in sucrose solution was then added on the screen top of the petri-dish as a drinking source. Mortality was evaluated at 24 hours after exposure.
Treatments were allowed to dry overnight. USDA Petri Dish Method was used as initial screening protocol. Twenty, 4-6 day old female Aedes aegypti mosquitoes were exposed to each treatment for 3 minutes and then moved to a clean untreated white paper index card. Treatments were replicated a minimum of three times. Mosquito knockdown was evaluated at various hourly intervals. […]

Data set [4] has as its system Odorous House ant, Tapinoma sessile. Description: Knockdown/mortality of ant workers under continuous exposure on treated glazed tile. As to conditions: Table 51, fipronil/adjuvant in acetone, glazed tile. The data set is classed as in vivo. From the text: Actual coverage was about 5″×5″ (or 161 cm2) for easy handling. Treatments were allowed to dry overnight. […] Treatments were replicated minimum three times.
(§2) Treatments were allowed to dry overnight. […] Treatments were replicated minimum three times.
(§3) Treatments were allowed to dry overnight. […] Treatments were replicated a minimum of three times.
Treatments were allowed to dry overnight. […] Treatments were replicated minimum of three times. […] The results are shown in FIG. 84 (No adjuvant alone treatment was performed).

Data set [5] concerns Red Imported Fire ant (RIFA), Solenopsis invicta. Described as above. The data set is classed as in vivo. As to conditions: Table 52, fipronil/adjuvant in acetone, glazed tile.
Excerpt: as §2, §3

The mark [6] stands for this setting: Table 48, fipronil/adjuvant in acetone.
Setting [7] is: Table 37, resmethrin/adjuvant in acetone.

Consider 7 compounds from US9028856B2, “Synergistic pesticide compositions” (priority 2008, dated 2015).

On to `CNC(=O)Oc1cccc2c1OC(C)(C)O2` [0.01% = 5 mg Bendiocarb/m^2], for which, in data set [1], the “% KD and Mortality 3′” value stood at 0%; the “% KD and Mortality 9′” value is 0%; the “% KD and Mortality 15′” value is 0%; the “% KD and Mortality 30′” value is 0%. In data set [1], the “% KD and Mortality 1 h” value is given as 0%; the “% KD and Mortality 24 h” value came to 0%.
As to `CNC(=O)Oc1cccc2c1OC(C)(C)O2` [0.1% = 50 mg Bendiocarb/m^2], in data set [1], the “% KD and Mortality 3′” value was 0%; the “% KD and Mortality 9′” value came to 0%; the “% KD and Mortality 15′” value came out at 0%; the “% KD and Mortality 30′” value is given as 15%. For the same compound, in data set [1], the “% KD and Mortality 1 h” value is reported as 37%; the “% KD and Mortality 24 h” value is listed as 81%.
Turning to `N#Cc1nn(-c2c(Cl)cc(C(F)(F)F)cc2Cl)c(N)c1[S+]([O-])C(F)(F)F` (stereo not drawn) [Fipronil (.0001%)], the “Average % Knockdown & Mortality after 60 min” value (in data set [2] (60 min); with Aedes aegypti mosquito (setting [6])) was 0% each time. Further, the “Average % Knockdown & Mortality after 3 hr” value in data set [2] (3 hr) came out at 7%. Besides, the “Average % Knockdown & Mortality after 5 hr” value in data set [2] (5 hr) was found to be 7%. Moreover, the “Average % Knockdown & Mortality after 24 hr” value in data set [2] (24 hr) is on record as 7%; in the data set on Aedes aegypti mosquito (setting [6]) it was 9%. Also, the “Average % Mortality after 30 min” value in data set [3] (30 min) worked out at 0%; in data set [4] (30 min), 0%; in data set [5] (30 min), 3%. Further, the “Average % Mortality after 60 min” value in data set [3] (60 min) was determined as 0%; in data set [4] (60 min), 3%; in data set [5] (60 min), 3%. Besides, the “Average % Mortality after 2 hr” value is reported as 0% in data set [3] (2 hr), 3% in data set [4] (2 hr) and 3% in data set [5] (2 hr). For the same compound, the “Average % Mortality after 3 hr” value in data set [3] (3 hr) came to 0%; in data set [5] (3 hr), 6%. The “Average % Mortality after 24 hr” value came to 74% in data set [3] (24 hr), 54% in data set [4] (24 hr) and 47% in data set [5] (24 hr). Besides, in the data set with Aedes aegypti mosquito (setting [6]), the “Average % Knockdown & Mortality after 15 min” value was 0%. For the same compound, the “Average % Knockdown & Mortality after 30 min” value in the data set with Aedes aegypti mosquito (setting [6]) is given as 0%. Also, the “Average % Knockdown & Mortality after 4 hr” value with Aedes aegypti mosquito (4 hr, Table 48, fipronil/adjuvant in acetone) turned out to be 3%. Further, the “Average % Knockdown & Mortality after 6 hr” value in the data set with Aedes aegypti mosquito (6 hr, Table 48, fipronil/adjuvant in acetone) is given as 3%.
For the compound `CC(C)=CC1C(C(=O)OCc2coc(Cc3ccccc3)c2)C1(C)C` (stereo not drawn) [Resmethrin (0.5%)], in the data set with Aedes aegypti mosquito (3 min, Table 37, resmethrin/adjuvant in acetone), the “Average % Knockdown & Mortality after 3 min” value was 0%. For the same compound, in the data set on Aedes aegypti mosquito (setting [7]), the “Average % Knockdown & Mortality after 15 min” value is 0%, the “Average % Knockdown & Mortality after 30 min” value was 0%, the “Average % Knockdown & Mortality after 60 min” value was 0% and the “Average % Knockdown & Mortality after 24 hr” value is on record as 8%. Besides, in data set [1] (in vivo), the “Average % Knockdown & Mortality after 3 min” value was 0%, the “Average % Knockdown & Mortality after 15 min” value is recorded as 0%, the “Average % Knockdown & Mortality after 30 min” value was found to be 0% and the “Average % Knockdown & Mortality after 60 min” value was determined as 0%. In data set [1] (in vivo), the “Average % Knockdown & Mortality after 2 hr” value is reported as 0% and the “Average % Knockdown & Mortality after 24 hr” value was determined as 0%.
On to `CNC(=O)Oc1cccc2ccccc12` [carbaryl (0.1%)], for which, in data set [1], the “Average % Mortality after 1 hr” value was found to be 0% and the “Average % Mortality after 3 hr” value was 0%.
With `CNC(=O)Oc1cccc2ccccc12` [carbaryl (2.5%)], in data set [1], the “Average % Mortality after 1 hr” value was found to be 0%, the “Average % Mortality after 3 hr” value was determined as 0%, the “Average % Mortality after 5 hr” value worked out at 2% and the “Average % Mortality after 24 hr” value was found to be 5%.
As for `CNC(=O)Oc1cccc2ccccc12` [carbaryl (5%)], in data set [1], the “Average % Mortality after 1 hr” value amounted to 0%, the “Average % Mortality after 3 hr” value is recorded as 0%, the “Average % Mortality after 5 hr” value is listed as 0% and the “Average % Mortality after 24 hr” value worked out at 0%.
